In the kinase profiling compilation of Christmann-Franck et al. (2016):

Key:
Experiment in all cases: radiometric filter-binding kinase assay, Kinase HotSpot
Conditions in all cases: compound 0.5 µM; ATP 10 µM
CAMK1D (human) = CAMK1D (human) (UniProt Q8IU85)
CAMK2D (human) = CAMK2D (human) (UniProt Q13557)
PRKG2 (human) = PRKG2 (human) (UniProt Q13237)
CSNK1D (human) = CSNK1D (human) (UniProt P48730)
PDGFRB (human) = PDGFRB (human) (UniProt P09619)
CDK3 CCNE1 (human) = CDK3 CCNE1 (human) (UniProt Q00526+P24864)
VRK1 (human) = VRK1 (human) (UniProt Q99986)
LIMK1 (human) = LIMK1 (human) (UniProt P53667)
NEK3 (human) = NEK3 (human) (UniProt P51956)
RIPK2 (human) = RIPK2 (human) (UniProt O43353)
STK24 (human) = STK24 (human) (UniProt Q9Y6E0)
SYK (human) = SYK (human) (UniProt P43405)
FES (human) = FES (human) (UniProt P07332)
MAP3K2 (human) = MAP3K2 (human) (UniProt Q9Y2U5)
RPS6KA2 KD1 KD2 (human) = RPS6KA2 KD1 KD2 (human) (UniProt Q15349)
CAMK2A (human) = CAMK2A (human) (UniProt Q9UQM7)
MAP3K9 (human) = MAP3K9 (human) (UniProt P80192)
DAPK1 (human) = DAPK1 (human) (UniProt P53355)
TGFBR2 (human) = TGFBR2 (human) (UniProt P37173)
SRPK2 (human) = SRPK2 (human) (UniProt P78362)
EPHA4 (human) = EPHA4 (human) (UniProt P54764)
TAOK1 (human) = TAOK1 (human) (UniProt Q7L7X3)
MAP3K7 TAB1 (human) = MAP3K7 TAB1 (human) (UniProt O43318+Q15750)
RPS6KB1 (human) = RPS6KB1 (human) (UniProt P23443)
AXL (human) = AXL (human) (UniProt P30530)
DAPK2 (human) = DAPK2 (human) (UniProt Q9UIK4)
STK16 (human) = STK16 (human) (UniProt O75716)
MAP3K5 (human) = MAP3K5 (human) (UniProt Q99683)
MAP4K4 (human) = MAP4K4 (human) (UniProt O95819)
AKT3 (human) = AKT3 (human) (UniProt Q9Y243)
PTK2 (human) = PTK2 (human) (UniProt Q05397)
DYRK3 (human) = DYRK3 (human) (UniProt O43781)
MAPK12 (human) = MAPK12 (human) (UniProt P53778)
ACVR1B (human) = ACVR1B (human) (UniProt P36896)
PRKD2 (human) = PRKD2 (human) (UniProt Q9BZL6)
BTK (human) = BTK (human) (UniProt Q06187)
AURKC (human) = AURKC (human) (UniProt Q9UQB9)
PRKCD (human) = PRKCD (human) (UniProt Q05655)
PASK (human) = PASK (human) (UniProt Q96RG2)
INSRR (human) = INSRR (human) (UniProt P14616)
CDK7 CCNH MNAT1 (human) = CDK7 CCNH MNAT1 (human) (UniProt P50613+P51948+P51946)
PHKG1 (human) = PHKG1 (human) (UniProt Q16816)
PHKG1 (human), sequence (Q16816 whole entry, looked up): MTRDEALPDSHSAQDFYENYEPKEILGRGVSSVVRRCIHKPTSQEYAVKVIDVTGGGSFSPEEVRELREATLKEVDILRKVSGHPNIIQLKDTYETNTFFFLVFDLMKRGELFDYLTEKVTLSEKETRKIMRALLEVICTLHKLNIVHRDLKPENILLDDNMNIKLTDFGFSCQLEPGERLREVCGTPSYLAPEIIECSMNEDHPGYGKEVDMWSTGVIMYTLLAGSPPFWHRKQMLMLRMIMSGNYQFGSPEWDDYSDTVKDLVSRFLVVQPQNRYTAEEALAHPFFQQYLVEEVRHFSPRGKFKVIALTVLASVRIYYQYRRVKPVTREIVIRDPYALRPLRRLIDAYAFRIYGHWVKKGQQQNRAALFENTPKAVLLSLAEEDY

EPHA4 (human), sequence (P54764 whole entry, looked up): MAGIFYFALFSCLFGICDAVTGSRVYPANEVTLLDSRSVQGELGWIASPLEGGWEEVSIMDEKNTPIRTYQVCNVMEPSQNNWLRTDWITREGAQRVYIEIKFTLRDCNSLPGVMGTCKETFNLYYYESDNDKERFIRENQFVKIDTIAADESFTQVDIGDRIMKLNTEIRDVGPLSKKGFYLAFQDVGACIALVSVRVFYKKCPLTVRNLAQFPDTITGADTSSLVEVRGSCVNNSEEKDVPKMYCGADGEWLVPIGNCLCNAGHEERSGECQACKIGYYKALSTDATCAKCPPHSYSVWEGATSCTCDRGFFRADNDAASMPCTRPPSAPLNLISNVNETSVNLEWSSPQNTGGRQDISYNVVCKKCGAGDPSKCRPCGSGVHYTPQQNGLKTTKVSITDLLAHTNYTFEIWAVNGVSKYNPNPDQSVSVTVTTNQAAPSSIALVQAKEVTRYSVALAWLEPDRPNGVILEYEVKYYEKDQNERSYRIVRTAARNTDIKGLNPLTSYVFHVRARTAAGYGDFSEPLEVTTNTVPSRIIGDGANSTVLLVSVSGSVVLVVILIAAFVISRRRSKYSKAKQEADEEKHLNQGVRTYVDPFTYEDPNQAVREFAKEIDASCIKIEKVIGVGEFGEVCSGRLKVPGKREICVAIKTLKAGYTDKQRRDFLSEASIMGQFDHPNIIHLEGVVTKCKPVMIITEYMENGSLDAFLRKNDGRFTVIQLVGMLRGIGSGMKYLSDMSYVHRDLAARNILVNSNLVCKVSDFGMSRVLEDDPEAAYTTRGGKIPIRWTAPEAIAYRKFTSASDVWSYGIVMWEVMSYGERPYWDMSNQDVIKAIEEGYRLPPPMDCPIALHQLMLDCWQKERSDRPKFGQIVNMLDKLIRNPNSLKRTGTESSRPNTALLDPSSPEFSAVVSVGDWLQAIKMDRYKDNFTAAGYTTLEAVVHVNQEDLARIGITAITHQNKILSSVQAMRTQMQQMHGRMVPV
DYRK3 (human), sequence (O43781 whole entry, looked up): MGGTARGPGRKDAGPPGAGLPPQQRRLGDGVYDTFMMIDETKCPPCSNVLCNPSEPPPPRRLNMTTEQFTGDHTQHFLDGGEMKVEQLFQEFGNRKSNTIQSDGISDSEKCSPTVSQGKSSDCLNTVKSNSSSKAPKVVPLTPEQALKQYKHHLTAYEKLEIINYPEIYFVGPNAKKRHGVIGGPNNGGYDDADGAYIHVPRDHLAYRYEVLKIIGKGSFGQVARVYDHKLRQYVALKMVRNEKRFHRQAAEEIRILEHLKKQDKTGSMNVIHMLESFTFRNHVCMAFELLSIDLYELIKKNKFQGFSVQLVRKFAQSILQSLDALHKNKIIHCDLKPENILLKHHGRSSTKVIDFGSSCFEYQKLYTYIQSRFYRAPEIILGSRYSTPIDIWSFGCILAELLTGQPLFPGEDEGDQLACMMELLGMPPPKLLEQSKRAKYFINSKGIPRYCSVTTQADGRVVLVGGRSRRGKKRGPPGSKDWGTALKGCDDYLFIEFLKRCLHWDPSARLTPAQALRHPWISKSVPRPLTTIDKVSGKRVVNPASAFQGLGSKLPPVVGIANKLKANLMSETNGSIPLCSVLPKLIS
RPS6KA2 KD1 KD2 (human), sequence (Q15349 whole entry, looked up): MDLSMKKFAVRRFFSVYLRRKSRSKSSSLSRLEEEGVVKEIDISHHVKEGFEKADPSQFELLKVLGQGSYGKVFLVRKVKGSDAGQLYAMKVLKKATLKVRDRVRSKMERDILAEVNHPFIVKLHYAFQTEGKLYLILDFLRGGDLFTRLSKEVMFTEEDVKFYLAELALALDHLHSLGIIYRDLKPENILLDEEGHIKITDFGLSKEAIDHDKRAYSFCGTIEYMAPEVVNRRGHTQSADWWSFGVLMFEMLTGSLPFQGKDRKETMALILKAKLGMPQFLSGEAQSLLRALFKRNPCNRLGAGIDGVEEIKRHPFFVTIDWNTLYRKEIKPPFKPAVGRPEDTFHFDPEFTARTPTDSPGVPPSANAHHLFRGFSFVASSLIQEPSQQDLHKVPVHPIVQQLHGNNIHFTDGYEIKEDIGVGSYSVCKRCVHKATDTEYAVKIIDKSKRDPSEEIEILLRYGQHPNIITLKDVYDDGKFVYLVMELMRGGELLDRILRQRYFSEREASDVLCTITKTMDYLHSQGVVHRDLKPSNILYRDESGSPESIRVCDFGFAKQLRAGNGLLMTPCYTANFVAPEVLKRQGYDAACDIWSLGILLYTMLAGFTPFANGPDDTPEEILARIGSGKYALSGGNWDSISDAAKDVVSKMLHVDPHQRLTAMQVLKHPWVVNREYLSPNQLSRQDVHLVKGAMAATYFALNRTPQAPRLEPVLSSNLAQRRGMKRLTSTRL
RPS6KB1 (human), sequence (P23443 whole entry, looked up): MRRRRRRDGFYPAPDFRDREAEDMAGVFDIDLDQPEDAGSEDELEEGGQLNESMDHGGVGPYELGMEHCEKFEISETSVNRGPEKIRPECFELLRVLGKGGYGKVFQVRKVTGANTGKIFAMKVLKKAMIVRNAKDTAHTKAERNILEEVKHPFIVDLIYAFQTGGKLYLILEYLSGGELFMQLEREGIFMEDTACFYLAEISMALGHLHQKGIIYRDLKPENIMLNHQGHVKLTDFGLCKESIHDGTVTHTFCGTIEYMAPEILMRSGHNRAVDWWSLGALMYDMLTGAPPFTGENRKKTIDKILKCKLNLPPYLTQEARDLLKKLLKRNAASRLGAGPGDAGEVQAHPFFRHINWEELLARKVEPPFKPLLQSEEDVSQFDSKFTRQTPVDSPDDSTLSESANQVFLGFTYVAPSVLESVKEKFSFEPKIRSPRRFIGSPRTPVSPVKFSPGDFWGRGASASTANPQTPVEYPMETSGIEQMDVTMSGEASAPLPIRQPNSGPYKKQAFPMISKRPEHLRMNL
FES (human), sequence (P07332 whole entry, looked up): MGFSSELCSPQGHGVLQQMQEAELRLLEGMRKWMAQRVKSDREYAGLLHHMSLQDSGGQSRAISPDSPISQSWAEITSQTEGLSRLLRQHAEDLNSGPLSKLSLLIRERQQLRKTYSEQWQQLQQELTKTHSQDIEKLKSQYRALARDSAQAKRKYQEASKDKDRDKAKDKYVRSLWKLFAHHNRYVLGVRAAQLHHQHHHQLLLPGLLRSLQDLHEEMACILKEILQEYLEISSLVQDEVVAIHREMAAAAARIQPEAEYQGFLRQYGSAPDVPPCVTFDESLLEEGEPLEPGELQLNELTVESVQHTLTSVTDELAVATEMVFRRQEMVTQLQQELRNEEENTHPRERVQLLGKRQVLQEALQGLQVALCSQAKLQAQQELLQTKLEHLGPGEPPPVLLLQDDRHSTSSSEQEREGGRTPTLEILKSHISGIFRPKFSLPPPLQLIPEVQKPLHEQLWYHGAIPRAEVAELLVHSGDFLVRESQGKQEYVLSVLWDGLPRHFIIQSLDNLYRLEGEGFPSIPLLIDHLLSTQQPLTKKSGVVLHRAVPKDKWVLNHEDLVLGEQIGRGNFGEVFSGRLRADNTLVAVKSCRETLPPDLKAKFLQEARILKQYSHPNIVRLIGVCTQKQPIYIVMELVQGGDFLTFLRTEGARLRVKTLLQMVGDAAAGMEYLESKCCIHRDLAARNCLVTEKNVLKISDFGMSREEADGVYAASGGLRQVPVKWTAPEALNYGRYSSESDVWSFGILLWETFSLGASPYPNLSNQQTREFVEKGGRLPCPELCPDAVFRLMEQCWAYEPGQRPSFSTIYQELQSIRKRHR
LIMK1 (human), sequence (P53667 whole entry, looked up): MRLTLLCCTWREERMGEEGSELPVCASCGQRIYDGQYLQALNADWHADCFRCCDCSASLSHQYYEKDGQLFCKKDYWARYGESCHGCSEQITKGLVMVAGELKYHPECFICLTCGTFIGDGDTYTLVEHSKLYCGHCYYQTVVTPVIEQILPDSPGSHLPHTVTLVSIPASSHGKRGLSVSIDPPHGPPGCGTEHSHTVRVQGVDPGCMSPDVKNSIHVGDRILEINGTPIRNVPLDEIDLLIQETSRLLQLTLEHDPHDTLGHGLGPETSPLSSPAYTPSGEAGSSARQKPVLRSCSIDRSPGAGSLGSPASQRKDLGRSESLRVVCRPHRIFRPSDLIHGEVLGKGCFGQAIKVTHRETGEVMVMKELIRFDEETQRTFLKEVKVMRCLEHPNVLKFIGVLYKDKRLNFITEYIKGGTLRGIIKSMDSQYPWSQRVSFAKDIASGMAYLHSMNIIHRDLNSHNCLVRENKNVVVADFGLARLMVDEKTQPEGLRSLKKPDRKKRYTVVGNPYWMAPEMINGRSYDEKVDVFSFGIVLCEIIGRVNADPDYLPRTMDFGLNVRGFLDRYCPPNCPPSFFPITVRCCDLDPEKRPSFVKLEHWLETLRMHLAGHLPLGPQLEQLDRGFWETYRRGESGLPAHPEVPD
STK16 (human), sequence (O75716 whole entry, looked up): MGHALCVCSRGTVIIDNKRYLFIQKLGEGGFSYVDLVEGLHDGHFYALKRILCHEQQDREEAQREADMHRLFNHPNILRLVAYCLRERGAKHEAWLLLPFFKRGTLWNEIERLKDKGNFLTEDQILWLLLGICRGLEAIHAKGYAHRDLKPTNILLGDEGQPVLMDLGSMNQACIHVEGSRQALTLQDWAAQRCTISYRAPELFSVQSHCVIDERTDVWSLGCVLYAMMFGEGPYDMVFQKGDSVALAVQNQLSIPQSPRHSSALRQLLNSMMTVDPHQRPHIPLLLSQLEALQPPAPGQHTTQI

Work on `O=C1Nc2ccccc2/C1=C1/Nc2ccccc2/C1=N\OCCC(O)CO` (stereo unspecified) yielded a residual activity (CAMK1D (human)) of 80.3%, a residual activity (CAMK2D (human)) of 29.1% and a residual activity (PRKG2 (human)) of 28.1%. For the same compound, the residual activity (CSNK1D (human)) was 52.9%, the residual activity (PDGFRB (human)) was 42.8% and the residual activity (CDK3 CCNE1 (human)) was 65.2%. It also gave a residual activity (VRK1 (human)) of 88.3%, a residual activity (LIMK1 (human)) of 39.5% and a residual activity (NEK3 (human)) of 102%. It also gave a residual activity (RIPK2 (human)) of 62.8%, a residual activity (STK24 (human)) of 51.9% and a residual activity (SYK (human)) of 38.6%. For the same compound, the residual activity (FES (human)) was 81.7%, the residual activity (MAP3K2 (human)) was 60.6% and the residual activity (RPS6KA2 KD1 KD2 (human)) was 12.1%. The residual activity (CAMK2A (human)) was 12.2%, the residual activity (MAP3K9 (human)) was 7.06% and the residual activity (DAPK1 (human)) was 80.9%. It also gave a residual activity (TGFBR2 (human)) of 119%, a residual activity (SRPK2 (human)) of 86.5% and a residual activity (EPHA4 (human)) of 77.9%. The residual activity (TAOK1 (human)) was 98.2%, the residual activity (MAP3K7 TAB1 (human)) was 50.5% and the residual activity (RPS6KB1 (human)) was 47.8%. The residual activity (AXL (human)) was 42.7%, the residual activity (DAPK2 (human)) was 104% and the residual activity (STK16 (human)) was 12.7%. For the same compound, the residual activity (MAP3K5 (human)) was 91.2%, the residual activity (MAP4K4 (human)) was 11.6% and the residual activity (AKT3 (human)) was 92.9%. It also gave a residual activity (PTK2 (human)) of 35%, a residual activity (DYRK3 (human)) of 105% and a residual activity (MAPK12 (human)) of 89.9%. The residual activity (ACVR1B (human)) was 110%, the residual activity (PRKD2 (human)) was 74.3% and the residual activity (BTK (human)) was 24.1%. The residual activity (AURKC (human)) was 43.2%, the residual activity (PRKCD (human)) was 80.6% and the residual activity (PASK (human)) was 89.8%. For the same compound, the residual activity (INSRR (human)) was 2.77%, the residual activity (CDK7 CCNH MNAT1 (human)) was 77.9% and the residual activity (PHKG1 (human)) was 8.06%.

With `O=C1NC(=O)/C(=C\c2ccc3nccnc3c2)S1` the residual activity (CAMK1D (human)) was 102%, the residual activity (CAMK2D (human)) was 93.7% and the residual activity (PRKG2 (human)) was 106%. The residual activity (CSNK1D (human)) was 96.3%, the residual activity (PDGFRB (human)) was 99.5% and the residual activity (CDK3 CCNE1 (human)) was 91.7%. For the same compound, the residual activity (VRK1 (human)) was 94.9%, the residual activity (LIMK1 (human)) was 87.4% and the residual activity (NEK3 (human)) was 97.3%. For the same compound, the residual activity (RIPK2 (human)) was 76.8%, the residual activity (STK24 (human)) was 93.2% and the residual activity (SYK (human)) was 98%. The residual activity (FES (human)) was 96.4%, the residual activity (MAP3K2 (human)) was 108% and the residual activity (RPS6KA2 KD1 KD2 (human)) was 85.4%. The residual activity (CAMK2A (human)) was 92.3%, the residual activity (MAP3K9 (human)) was 102% and the residual activity (DAPK1 (human)) was 105%. For the same compound, the residual activity (TGFBR2 (human)) was 108%, the residual activity (SRPK2 (human)) was 98.2% and the residual activity (EPHA4 (human)) was 96%. The residual activity (TAOK1 (human)) was 82.8%, the residual activity (MAP3K7 TAB1 (human)) was 98.7% and the residual activity (RPS6KB1 (human)) was 91.2%. For the same compound, the residual activity (AXL (human)) was 112%, the residual activity (DAPK2 (human)) was 139% and the residual activity (STK16 (human)) was 91.9%. It also gave a residual activity (MAP3K5 (human)) of 102%, a residual activity (MAP4K4 (human)) of 80.9% and a residual activity (AKT3 (human)) of 104%. It also gave a residual activity (PTK2 (human)) of 96.5%, a residual activity (DYRK3 (human)) of 71.5% and a residual activity (MAPK12 (human)) of 96.6%. It also gave a residual activity (ACVR1B (human)) of 109%, a residual activity (PRKD2 (human)) of 104% and a residual activity (BTK (human)) of 104%. The residual activity (AURKC (human)) was 95.6%, the residual activity (PRKCD (human)) was 94.4% and the residual activity (PASK (human)) was 87.7%. The residual activity (INSRR (human)) was 111%, the residual activity (CDK7 CCNH MNAT1 (human)) was 85.2% and the residual activity (PHKG1 (human)) was 91.3%.

For `Oc1ccc(Nc2nc(-c3ccc(Cl)cc3)cs2)cc1`, the residual activity (CAMK1D (human)) was 103%, the residual activity (CAMK2D (human)) was 98.8% and the residual activity (PRKG2 (human)) was 92.9%. It also gave a residual activity (CSNK1D (human)) of 105%, a residual activity (PDGFRB (human)) of 107% and a residual activity (CDK3 CCNE1 (human)) of 99%. For the same compound, the residual activity (VRK1 (human)) was 99.8%, the residual activity (LIMK1 (human)) was 90.5% and the residual activity (NEK3 (human)) was 98.4%. For the same compound, the residual activity (RIPK2 (human)) was 96.4%, the residual activity (STK24 (human)) was 94.1% and the residual activity (SYK (human)) was 93.8%. It also gave a residual activity (FES (human)) of 103%, a residual activity (MAP3K2 (human)) of 92.1% and a residual activity (RPS6KA2 KD1 KD2 (human)) of 101%. For the same compound, the residual activity (CAMK2A (human)) was 106%, the residual activity (MAP3K9 (human)) was 80.9% and the residual activity (DAPK1 (human)) was 101%. For the same compound, the residual activity (TGFBR2 (human)) was 112%, the residual activity (SRPK2 (human)) was 104% and the residual activity (EPHA4 (human)) was 104%. The residual activity (TAOK1 (human)) was 97.1%, the residual activity (MAP3K7 TAB1 (human)) was 95.3% and the residual activity (RPS6KB1 (human)) was 104%. For the same compound, the residual activity (AXL (human)) was 98.5%, the residual activity (DAPK2 (human)) was 107% and the residual activity (STK16 (human)) was 106%. For the same compound, the residual activity (MAP3K5 (human)) was 108%, the residual activity (MAP4K4 (human)) was 88.9% and the residual activity (AKT3 (human)) was 105%. It also gave a residual activity (PTK2 (human)) of 99.4%, a residual activity (DYRK3 (human)) of 101% and a residual activity (MAPK12 (human)) of 106%. It also gave a residual activity (ACVR1B (human)) of 89.5%, a residual activity (PRKD2 (human)) of 102% and a residual activity (BTK (human)) of 107%. It also gave a residual activity (AURKC (human)) of 97%, a residual activity (PRKCD (human)) of 86.9% and a residual activity (PASK (human)) of 131%. It also gave a residual activity (INSRR (human)) of 98.8%, a residual activity (CDK7 CCNH MNAT1 (human)) of 96.3% and a residual activity (PHKG1 (human)) of 96.5%.
